The results in this text go back to US20080305038A1, “Transport of Nano-and Macromolecular Structures Into Cytoplasm and Nucleus of Cells” (LUDWIG-MAXIMILIANS-UNIVERSITÄT, priority 2005, published 2008).

The test system of one experiment is HepG2 cells. Description: Uptake of β-galactosidase, activity visualized by X-Gal. Format: cell-based. The following applies: 5 μM. The method, then: (§1) Analogous to sections 2.1 to 2.3 above the enzyme β-galactosidase was modified with TP. […] Subsequent to modification HepG2 cells were incubated with (TP) modified β-galactosidase (5 μM) for 1 h or 24 h and then fixed in paraformaldehyde. β-galactosidase activity was visualized by using X-Gal (see FIG. 6).

Experiment [1] is described as follows: Influence of TP-modification on activity of β-galactosidase. Format: biochemical. How it is done: as §1

“FITC-β-galactosidase-TP: enzyme β-galactosidase modified with thiopyridyl via SPDP, conjugation degree about 1”: the “cellular uptake of β-galactosidase” value with HepG2 cells (1 h or 24 h) is “uptake of β-galactosidase into cytoplasm and nucleus into many cells”. Besides, the “nuclear uptake of β-galactosidase” value with HepG2 cells (1 h or 24 h) is “uptake of β-galactosidase into cytoplasm and nucleus into many cells”; in the experiment with HepG2 cells (1 h or 24 h, listed as (TP) modified β-galactosidase), “clearly observable”. The “positive cells and nucleoli” value in the experiment with HepG2 cells (24 h incubation) was “almost all cells and their nucleoli showed a positive signal”. Moreover, in experiment [1], the “influence of TP-modification on activity of β-galactosidase” value is listed as “does not exhibit any influence on activity of β-galactosidase”.
